In assay [1] the target is T1, ERK1 (Homo sapiens, UniProt P27361).
T1 construct: purchased Jubilant Biosys
Nature of the assay: ERK1 HTRF (biochemical) assay. The settings on record: HTRF. On the procedure:
ERK1 and ERK2 HTRF (Biochemical) Assays
These assays employed a homogeneous time resolved fluorescence (HTRF) technique. […] The plate was incubated at room temperature for 60 min with shaking. […] The IC50 values (half maximal inhibitory concentration values) were subsequently determined using a sigmoidal dose-response curve (variable slope) in GraphPad Prism® 5 software.
For orientation: TR-FRET usually uses a lanthanide donor and a delayed reading to cut background.

The target in assay [2] is T2, ERK2 (Homo sapiens, UniProt P28482).
T2 construct: purchased Jubilant Biosys
T2 sequence (P28482 whole entry): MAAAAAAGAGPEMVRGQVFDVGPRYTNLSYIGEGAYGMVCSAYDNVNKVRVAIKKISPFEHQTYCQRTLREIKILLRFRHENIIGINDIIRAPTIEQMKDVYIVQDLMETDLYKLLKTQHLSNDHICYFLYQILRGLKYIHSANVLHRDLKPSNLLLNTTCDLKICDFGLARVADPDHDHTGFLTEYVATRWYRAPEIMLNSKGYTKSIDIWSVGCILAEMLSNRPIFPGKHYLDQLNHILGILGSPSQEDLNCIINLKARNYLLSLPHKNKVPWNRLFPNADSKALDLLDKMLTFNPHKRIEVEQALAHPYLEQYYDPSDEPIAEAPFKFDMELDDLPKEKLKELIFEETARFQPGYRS
Nature of the assay: ERK2 HTRF (biochemical) assay. The following applies: HTRF. In short, it runs like this:
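Compounds were tested as half-log dilutions from 0.0005 to 10 uM in Tris pH 7.5/MgCl2 buffer, with a substrate mix of 1 uM biotin-MBP peptide and 24 uM ATP and an enzyme mix of 25 nM ERK2. Reaction ran 60 min at room temperature. Phospho-MBP was detected by HTRF (Eu-anti-phospho-MBP/SA-APC, 665/620 nm), and IC50 was fitted with a variable-slope sigmoidal curve.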

Consider 20 compounds from US9896445B2, “Heterocyclic inhibitors of ERK1 and ERK2 and their use in the treatment of cancer” (Asana Biosciences, LLC, priority 2015, dated 2018).

A word on the IC50: it is the concentration that gives 50% inhibition. Higher therefore signals weaker potency.

T1 sequence (P27361 whole entry): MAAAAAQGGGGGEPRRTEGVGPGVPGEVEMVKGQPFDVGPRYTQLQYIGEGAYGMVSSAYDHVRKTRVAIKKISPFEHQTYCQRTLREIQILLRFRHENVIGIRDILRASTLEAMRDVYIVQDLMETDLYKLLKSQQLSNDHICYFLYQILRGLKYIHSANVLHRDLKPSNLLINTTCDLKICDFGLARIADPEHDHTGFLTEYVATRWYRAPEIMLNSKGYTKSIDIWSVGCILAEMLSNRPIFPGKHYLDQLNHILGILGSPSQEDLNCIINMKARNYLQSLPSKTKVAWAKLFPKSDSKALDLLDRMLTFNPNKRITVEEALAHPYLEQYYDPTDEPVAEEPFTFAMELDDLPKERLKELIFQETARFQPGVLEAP

For the compound `Cc1cnc(Nc2ccc3c(c2)OCO3)nc1-n1ccc(C(=O)NC(CO)c2ccc(F)cc2)c1` (stereo not shown) [Compound 172, 1-(2-(benzo[d][1,3]dioxol-5-ylamino)-5-methylpyrimidin-4-yl)-N-(1-(4-fluorophenyl)-2-hydroxyethyl)-1H-pyrrole-3-carboxamide], the 50% inhibitory concentration (IC50) is less than 50 nM in assay [1] and not above 50 nM in assay [2].

For the compound `Cc1cnc(Nc2ccc3c(c2)CCCO3)nc1-n1ccc(C(=O)NC(CO)c2ccccc2)c1` (stereo not shown) [Compound 173, 1-(2-(chroman-6-ylamino)-5-methyl-pyrimidin-4-yl)-N-(2-hydroxy-1-phenylethyl)-1H-pyrrole-3-carboxamide], the IC50 was less than 50 nM in assay [1] and not above 50 nM in assay [2].

Turning to `Cc1cnc(NC2CCNC2)nc1-n1ccc(C(=O)N[C@H](CO)c2cccc(Cl)c2)c1` (stereo partly drawn) [Compound 174, N-((S)-1-(3-chlorophenyl)-2-hydroxyethyl)-1-(5-methyl-2-(pyrrolidin-3-ylamino)pyrimidin-4-yl)-1H-pyrrole-3-carboxamide], the IC50 was less than 50 nM in assay [1] and not above 50 nM in assay [2].

For `Cc1cnc(Nc2ccc(F)c(N3CCOCC3)c2)nc1-n1ccc(C(=O)NC(CO)c2cccc(Cl)c2)c1` (stereo not shown) [Compound 175, N-(1-(3-chloro-phenyl)-2-hydroxy-ethyl)-1-(2-((4-fluoro-3-morpholinophenyl)amino)-5-methyl-pyrimidin-4-yl)-1H-pyrrole-3-carboxamide], the results for the IC50 in assay [1] and in assay [2] were less than 50 nM and not above 50 nM, respectively.

In the case of `O=C(NC(CO)c1cccc(Cl)c1)c1ccn(-c2ccnc(Nc3ccc4c(c3)OC(F)(F)O4)n2)c1` (stereo not shown) [Compound 176, N-(1-(3-chloro-phenyl)-2-hydroxyethyl)-1-(2-((2,2-difluoro-benzo[d][1,3]dioxol-5-yl)amino)-pyrimidin-4-yl)-1H-pyrrole-3-carboxamide], the half-inhibitory concentration (IC50) was less than 50 nM in assay [1] and not above 50 nM in assay [2].

For `Cc1cnc(Nc2ccc(F)cc2)nc1-n1cnc(C(=O)NC(CN)c2cccc(Cl)c2)c1` (stereo not shown) [Compound 177, N-(2-amino-1-(3-chlorophenyl)ethyl)-1-(2-((4-fluoro-phenyl)amino)-5-methylpyrimidin-4-yl)-1H-imidazole-4-carboxamide], the IC50 in assay [1] was less than 50 nM; in assay [2] it was not above 50 nM.

For `Cc1cnc(Nc2ccc(N3CCC(N4CCNCC4)CC3)cc2)nc1-n1ccc(C(=O)NC(CO)c2ccccc2)c1` (stereo not shown) [Compound 178, N-(2-hydroxy-1-phenylethyl)-1-(5-methyl-2-((4-(4-(piperazin-1-yl)-piperidin-1-yl)-phenyl)amino)pyrimidin-4-yl)-1H-pyrrole-3-carboxamide], the IC50 in assay [1] and in assay [2] was 100 to 500 nM throughout.

Regarding `Cc1cnc(Nc2ccc(F)c(C(=O)N3CCN(C)CC3)c2)nc1-n1ccc(C(=O)NC(CO)c2cccc(Cl)c2)c1` (stereo not shown) [Compound 179, N-(1-(3-chlorophenyl)-2-hydroxyethyl)-1-(2-((4-fluoro-3-(4-methylpiperazine-1-carbonyl)phenyl)amino)-5-methyl-pyrimidin-4-yl)-1H-pyrrole-3-carboxamide], the IC50 in assay [1] was less than 50 nM; in assay [2], not above 50 nM.

As to `Cc1cnc(Nc2ccccc2)cc1-n1cnc(C(=O)NC(CO)c2cccc(Cl)c2)c1` (stereo not shown) [Compound 180, N-(1-(3-chloro-phenyl)-2-hydroxyethyl)-1-(5-methyl-2-(phenyl-amino)pyridin-4-yl)-1H-imidazole-4-carboxamide], the IC50 in assay [1] was less than 50 nM; in assay [2], not above 50 nM.

For `COc1cc(C(=O)N2CCOCC2)c(F)cc1Nc1ncc(C)c(-n2ccc(C(=O)NC(CO)c3cccc(Cl)c3)c2)n1` (stereo not shown) [Compound 181, N-(1-(3-chlorophenyl)-2-hydroxyethyl)-1-(2-((5-fluoro-2-methoxy-4-(morpholine-4-carbonyl)phenyl)amino)-5-methyl-pyrimidin-4-yl)-1H-pyrrole-3-carboxamide], the IC50 in assay [1] is less than 50 nM; in assay [2] it was not above 50 nM.

On to `Cc1cc(Nc2ncc(C)c(-n3ccc(C(=O)NC(CO)c4cccc(Cl)c4)c3)n2)ccc1C1CCNCC1` (stereo not shown) [Compound 182, N-(1-(3-chloro-phenyl)-2-hydroxyethyl)-1-(5-methyl-2-((3-methyl-4-(piperidin-4-yl)phenyl)-amino)pyrimidin-4-yl)-1H-pyrrole-3-carboxamide], for which the figures for the concentration for half-maximal inhibition (IC50) in assay [1] and in assay [2] were less than 50 nM and not above 50 nM, respectively.

As to `Cc1cn(-c2ccnc(Nc3ccccc3)c2)cc1C(=O)N[C@H](CO)c1cccc(Cl)c1` [Compound 183, (S)-N-(1-(3-chlorophenyl)-2-hydroxyethyl)-4-methyl-1-(2-(phenylamino)pyridin-4-yl)-1H-pyrrole-3-carboxamide], the IC50 in assay [1] was 50 to 100 nM; in assay [2], not above 50 nM.

For the compound `COc1ccc(Nc2ncc(C)c(-n3ccc(C(=O)NC(CO)c4cccc(Cl)c4)c3)n2)cc1OCCCN(C)C` (stereo not shown) [Compound 184, N-(1-(3-chloro-phenyl)-2-hydroxy-ethyl)-1-(2-((3-(3-(dimethylamino)propoxy)-4-methoxy-phenyl)amino)-5-methylpyrimidin-4-yl)-1H-pyrrole-3-carboxamide], the values for the IC50 in assay [1] and in assay [2] were less than 50 nM and not above 50 nM, respectively.

Consider `Cc1cnc(Nc2ccc3c(c2)OCC3)nc1-n1ccc(C(=O)NC(CO)c2ccccc2)c1` (stereo not shown) [Compound 185], for which the IC50 was less than 50 nM in assay [1] and not above 50 nM in assay [2].

As to `Cc1cnc(Nc2ccc3c(c2)OCCC3)nc1-n1ccc(C(=O)NC(CO)c2ccccc2)c1` (stereo not shown) [Compound 186, 1-(2-(chroman-7-ylamino)-5-methyl-pyrimidin-4-yl)-N-(2-hydroxy-1-phenylethyl)-1H-pyrrole-3-carboxamide], the IC50 was less than 50 nM in assay [1] and not above 50 nM in assay [2].

As for `Cc1cccc(C(CO)NC(=O)c2ccn(-c3nc(N[C@H]4CCOC4)ncc3C)c2)c1` (stereo partly drawn) [Compound 187, N-(2-hydroxy-1-(m-tolyl)ethyl)-1-(5-methyl-2-(((S)-tetrahydrofuran-3-yl)amino)pyrimidin-4-yl)-1H-pyrrole-3-carboxamide], the 50% inhibitory concentration (IC50) in assay [1] was less than 50 nM; in assay [2], not above 50 nM.

With `O=C(N[C@H](CO)c1cccc(Cl)c1)c1ccn(-c2ccnc(NC3CCOC3)c2)c1` (stereo partly drawn) [Compound 188, N-((S)-1-(3-chlorophenyl)-2-hydroxyethyl)-1-(2-((tetrahydrofuran-3-yl)amino)pyridin-4-yl)-1H-pyrrole-3-carboxamide], the IC50 in assay [1] and in assay [2] was 100 to 500 nM each time.

Consider `O=C(NC(CO)c1ccccc1)c1ccn(-c2ccnc(NC3CCOC3)c2)c1` (stereo not shown) [Compound 189, N-(2-hydroxy-1-phenylethyl)-1-(2-((tetrahydrofuran-3-yl)amino)pyridin-4-yl)-1H-pyrrole-3-carboxamide], for which the 50% inhibitory concentration (IC50) in assay [1] is 100 to 500 nM; in assay [2] it was 500 to 2500 nM.

As for `Cc1cnc(NCC2CCCO2)nc1-n1ccc(C(=O)N[C@H](CO)c2cccc(Cl)c2)c1` (stereo partly drawn) [Compound 190, N-((S)-1-(3-chlorophenyl)-2-hydroxyethyl)-1-(5-methyl-2-(((tetrahydrofuran-2-yl)methyl)-amino)pyrimidin-4-yl)-1H-pyrrole-3-carboxamide], the IC50 in assay [1] was less than 50 nM; in assay [2] it was 50 to 100 nM.

`Cc1cnc(NCc2cccnc2)cc1-n1ccc(C(=O)NC(CO)c2ccc(F)c(Cl)c2)c1` (stereo not shown) [Compound 193, N-(1-(3-chloro-4-fluorophenyl)-2-hydroxyethyl)-1-(5-methyl-2-((pyridin-3-ylmethyl)-amino)pyridin-4-yl)-1H-pyrrole-3-carboxamide]: the IC50 in assay [1] and in assay [2] was 100 to 500 nM in each case.
